Experimental data published in patent US20220380341A1, “INHIBITORS OF HIV-1 NEF FOR THE TREATMENT OF HIV DISEASE” (priority 2018, published 2022).
Read-outs that look alike come from different tables or passages of the source.

Experiments:
[1] = system: HIV-1NL4-3; experiment: HIV-1 infectivity assay in TZM-bl reporter cell line (LTR-luciferase, 48 h); type: cell-based; conditions: Human immunodeficiency virus 1, TZM-bl
Procedure, shortened: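 Read-out is luciferase from an integrated HIV-1 LTR reporter in TZM-bl cells, 48 h after HIV-1NL4-3 infection in the presence of 1 μM compound. Scale set by DMSO-treated wild-type-infected cells (0%) and Nef-defective virus (100% Nef-dependent effect). Cell Titer Blue measures cytotoxicity without virus.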

[2] = system: TZM-bl cell line; type: cell-based; conditions: human, 1 μM
Procedure, shortened: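 Nef-dependent infectivity in TZM-bl cells: HIV-1NL4-3 infection with 1 μM compound, luciferase read at 48 h, normalized against DMSO wild-type and Nef-defective controls. Compound cytotoxicity in uninfected cells measured by Cell Titer Blue.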

[3] = target: HIV-1 NefNL4-3 (Human immunodeficiency virus type 1 group M subtype B, UniProt P03406, A33V/T15A/T51N/V11I); experiment: Surface plasmon resonance binding to recombinant full-length Nef (NL4-3); conditions: for RU30/RUNef (extent of binding): response units at 30 μM relative to Nef immobilized on the SPR chip; for Nef NL4-3 Binding, SPR 1:1 or 2-site fitting KD1: 1:1 Langmuir fit where the KD2 cell says '1 to 1 fitting', else 2-site fit
[4] = 1.0 μM, TZM-bl reporter cell line, Table 4, read-out: % Infectivity Inhibition
[5] = 48 h, Table 1, TZM-bl cells, 1 μM, 48 h, 100% = Nef-defective HIV-1, read-out: HIV-1 Infectivity % Inhibition Norm. to Δ-Nef @ 1 μM
[6] = KD, M, Table 4, SPR fit 2-step induced fit, KD = koff/kon × koff2/(koff2 + kon2)
[7] = Nef NL4-3 Binding, SPR 2-state fitting KD, Table 1, 2-step induced-fit model
[8] = Table 4, 2-step induced fit, T = 1/koff2
[9] = read-out: Nef NL4-3 Binding, SPR 1:1 or 2-site fitting KD2, Table 1, 2-site fit, second component
[10] = KD, M, Table 4, SPR fit 1:1 Langmuir, KD = koff/kon
[11] = Table 4, 1:1 Langmuir fit, T = 1/koff

COC(=O)N1CCC(CCc2c(-c3ccc(C(F)(F)F)cn3)nn(-c3nc4ccccc4[nH]3)c2O)CC1 [Compound I-715, methyl 4-{2-[1-(1H-1,3-benzodiazol-2-yl)-5-hydroxy-3-[5-(trifluoromethyl)pyridin-2-yl]-1H-pyrazol-4-yl]ethyl}piperidine-1-carboxylate]
inhibition at 1 µM [1, 4]: 25.2% | inhibition at 1 µM [1, 5]: 25.2% | % Cell Viability [2]: 99.1% | Percent Viability @ 1 μM (TZM-bl cells) [2]: 99.1% | Kd [3]: 686 nM | Kd [3, 6]: 2510 nM | Kd ([3]; Nef NL4-3 Binding, SPR 1:1 or 2-site fitting KD2, Table 1, 2-site fit, second component): 1330 nM | Kd [3, 7]: 2510 nM | T, minutes (residence time) [3, 8]: 3.76E + 00 minutes | RU30/RUNef (extent of binding) [3]: 5.47E- 03

O=C(OCc1ccccc1)N1CCCC(c2nn(-c3nc4ccccc4[nH]3)c(O)c2CCc2ccc(F)cc2)C1 (stereo not shown) [Compound I-160, benzyl 3-[1-(1H-1,3-benzodiazol-2-yl)-4-[2-(4-fluorophenyl)ethyl]-5-hydroxy-1H-pyrazol-3-yl]piperidine-1-carboxylate]
inhibition at 1 µM [1, 4]: 33.4% | inhibition at 1 µM [1, 5]: 33.4% | % Cell Viability [2]: 93.7% | Percent Viability @ 1 μM (TZM-bl cells) [2]: 93.7% | Kd [3]: 0.0063 nM | Kd [3, 6]: 0.00238 nM | T, minutes (residence time) [3, 8]: 7.41E + 06 minutes | Kd [3, 9]: 2620 nM | RU30/RUNef (extent of binding) [3]: 1.74E- 02

CC(C)(C)OC(=O)N1CCCC(Cc2nn(-c3nc4ccccc4[nH]3)c(O)c2CCc2ccc(F)cc2)C1 (stereo not shown) [Compound I-214, tert-butyl 3-{[1-(1H-1,3-benzodiazol-2-yl)-4-[2-(4-fluorophenyl)ethyl]-5-hydroxy-1H-pyrazol-3-yl]methyl}piperidine-1-carboxylate]
inhibition at 1 µM [1, 5]: -5.5% | Percent Viability @ 1 μM (TZM-bl cells) [2]: 99.9% | Kd [3]: 20.8 nM

Oc1c(CC2CCCOC2)c(-c2ccc(F)cc2)nn1-c1nc2ccccc2[nH]1 (stereo not shown) [Compound I-175, 1-(1H-1,3-benzodiazol-2-yl)-3-(4-fluorophenyl)-4-[(oxan-3-yl)methyl]-1H-pyrazol-5-ol]
inhibition at 1 µM [1, 4]: 67.2% | % Cell Viability [2]: 88.8% | Kd [3, 10]: 605 nM | T, minutes (residence time) [3, 11]: 7.72E + 00 minutes | RU30/RUNef (extent of binding) [3]: 6.67E- 04

Oc1c(CCc2ccc(F)cc2)c(C2CCN(CC3CCOCC3)CC2)nn1-c1nc2ccccc2[nH]1 [Compound I-806, 1-(1H-1,3-benzodiazol-2-yl)-4-[2-(4-fluorophenyl)ethyl]-3-{1-[(oxan-4-yl)methyl]piperidin-4-yl}-1H-pyrazol-5-ol]
inhibition at 1 µM [1, 4]: 20.6% | inhibition at 1 µM [1, 5]: 20.6% | % Cell Viability [2]: 99.1% | Percent Viability @ 1 μM (TZM-bl cells) [2]: 99.1% | Kd [3]: 9900 nM | Kd [3, 10]: 9900 nM | T, minutes (residence time) [3, 11]: 1.79E + 00 minutes | RU30/RUNef (extent of binding) [3]: 7.48E- 04

Oc1c(CCc2ccc(F)cc2)c(CC2CCCNC2)nn1-c1nc2ccccc2[nH]1 (stereo not shown) [Compound I-556, 1-(1H-1,3-benzodiazol-2-yl)-4-[2-(4-fluorophenyl)ethyl]-3-[(piperidin-3-yl)methyl]-1H-pyrazol-5-ol]
inhibition at 1 µM [1, 5]: 18.1% | Percent Viability @ 1 μM (TZM-bl cells) [2]: 86.1% | Kd [3]: 783 nM

COc1cccc(-c2nn(-c3nc4ccccc4[nH]3)c(O)c2CCc2ccc(F)cc2)n1 [Compound I-138, 1-(1H-1,3-benzodiazol-2-yl)-4-[2-(4-fluorophenyl)ethyl]-3-(6-methoxypyridin-2-yl)-1H-pyrazol-5-ol]
inhibition at 1 µM [1, 5]: 48.2% | Percent Viability @ 1 μM (TZM-bl cells) [2]: 95.8% | Kd [3]: 3960 nM

Nc1ccc(S(=O)(=O)N2CCC(c3nn(-c4nc5ccccc5[nH]4)c(O)c3CCc3ccc(F)cc3)CC2)cc1 [Compound I-749, 3-[1-(4-aminobenzenesulfonyl)piperidin-4-yl]-1-(1H-1,3-benzodiazol-2-yl)-4-[2-(4-fluorophenyl)ethyl]-1H-pyrazol-5-ol]
inhibition at 1 µM [1, 5]: 64.1% | Percent Viability @ 1 μM (TZM-bl cells) [2]: 78.7% | Kd [3]: 1.26 nM | Kd [3, 7]: 402 nM | Kd [3, 9]: 755 nM

CC(C)(C)OC(=O)N1CCC(Cc2nn(-c3nc4ccccc4[nH]3)c(O)c2CCc2ccc(F)cc2)C1 (stereo not shown) [Compound I-206, tert-butyl 3-{[1-(1H-1,3-benzodiazol-2-yl)-4-[2-(4-fluorophenyl)ethyl]-5-hydroxy-1H-pyrazol-3-yl]methyl}pyrrolidine-1-carboxylate]
inhibition at 1 µM [1, 5]: 35.2% | Percent Viability @ 1 μM (TZM-bl cells) [2]: 90.6% | Nef NL4-3 Binding, SPR 1:1 or 2-site fitting KD1 ([3]; Table 1): No Interaction

Oc1c(CCC2CCOCC2)c(-c2cccc(F)c2)nn1-c1nc2cccnc2[nH]1 [Compound I-304, 3-(3-fluorophenyl)-1-{3H-imidazo[4,5-b]pyridin-2-yl}-4-[2-(oxan-4-yl)ethyl]-1H-pyrazol-5-ol]
inhibition at 1 µM [1, 4]: 0% | inhibition at 1 µM [1, 5]: -2% | % Cell Viability [2]: 98.7% | Percent Viability @ 1 μM (TZM-bl cells) [2]: 98.7% | Kd [3]: 138 nM | Kd [3, 6]: 3150 nM | Kd [3, 7]: 3150 nM | T, minutes (residence time) [3, 8]: 1.25E + 01 minutes | Kd [3, 9]: 40300 nM | RU30/RUNef (extent of binding) [3]: 5.25E- 03

O=S(=O)(C1CC1)N1CCC(c2nn(-c3nc4ccccc4[nH]3)c(O)c2CCc2ccc(F)cc2)CC1 [Compound I-748, 1-(1H-1,3-benzodiazol-2-yl)-3-[1-(cyclopropanesulfonyl)piperidin-4-yl]-4-[2-(4-fluorophenyl)ethyl]-1H-pyrazol-5-ol]
inhibition at 1 µM [1, 5]: 22.3% | Percent Viability @ 1 μM (TZM-bl cells) [2]: 94.8% | Kd [3]: 4150 nM

Cc1nn(-c2nc3ccccc3[nH]2)c(O)c1Cc1ccc(Cl)cc1F [Compound I-156, 1-(1H-1,3-benzodiazol-2-yl)-4-[(4-chloro-2-fluorophenyl)methyl]-3-methyl-1H-pyrazol-5-ol]
inhibition at 1 µM [1, 4]: 15.4% | inhibition at 1 µM [1, 5]: 15.4% | % Cell Viability [2]: 100% | Percent Viability @ 1 μM (TZM-bl cells) [2]: 101.5% | Kd [3]: 8.56 nM | Kd [3, 10]: 8.56 nM | T, minutes (residence time) [3, 11]: 7.34E + 02 minutes | RU30/RUNef (extent of binding) [3]: 3.62E- 03

Cn1cc(-c2nn(-c3nc4ccccc4[nH]3)c(O)c2CCc2ccc(F)cc2)ccc1=O [Compound I-134, 5-[1-(1H-1,3-benzodiazol-2-y1)-4-[2-(4-fluorophenyl)ethyl]-5-hydroxy-1H-pyrazol-3-yl]-1-methyl-1,2-dihydropyridin-2-one]
inhibition at 1 µM [1, 5]: 45.8% | Percent Viability @ 1 μM (TZM-bl cells) [2]: 100.5% | Nef NL4-3 Binding, SPR 1:1 or 2-site fitting KD1 ([3]; Table 1): No Interaction

Oc1c(CCC2CCN(CC(F)(F)F)CC2)c(-c2ccc(C(F)(F)F)cc2)nn1-c1nc2ccccc2[nH]1 [Compound I-1006, 1-(1H-1,3-benzodiazol-2-yl)-4-{2-[1-(2,2,2-trifluoroethyl)piperidin-4-yl]ethyl}-3-[4-(trifluoromethyl)phenyl]-1H-pyrazol-5-ol]
inhibition at 1 µM [1, 4]: 83.1% | inhibition at 1 µM [1, 5]: 83.1% | % Cell Viability [2]: 85.2% | Percent Viability @ 1 μM (TZM-bl cells) [2]: 85.2% | Kd [3]: 472 nM | Kd [3, 6]: 1.24 nM | Kd [3, 7]: 1.24 nM | T, minutes (residence time) [3, 8]: 1.80E + 04 minutes | Kd [3, 9]: 15100 nM | RU30/RUNef (extent of binding) [3]: 5.08E- 03

OCCc1c(-c2ccc(C(F)(F)F)cc2)nn(-c2nc3ccccc3[nH]2)c1O [Compound I-153, 1-(1H-1,3-benzodiazol-2-yl)-4-(2-hydroxyethyl)-3-[4-(trifluoromethyl)phenyl]-1H-pyrazol-5-ol]
inhibition at 1 µM [1, 4]: 0% | inhibition at 1 µM [1, 5]: -20.1% | % Cell Viability [2]: 99.9% | Percent Viability @ 1 μM (TZM-bl cells) [2]: 99.9% | Kd [3]: 68.8 nM | Kd [3, 10]: 68.8 nM | T, minutes (residence time) [3, 11]: 9.31E + 00 minutes | RU30/RUNef (extent of binding) [3]: 9.06E- 04

O=C(Cc1ccncc1)N1CCC(c2nn(-c3nc4ccccc4[nH]3)c(O)c2CCc2ccc(F)cc2)CC1 [Compound I-734, 1-{4-[1-(1H-1,3-benzodiazol-2-yl)-4-[2-(4-fluorophenyl)ethyl]-5-hydroxy-1H-pyrazol-3-yl]piperidin-1-yl}-2-(pyridin-4-yl)ethan-1-one]
inhibition at 1 µM [1, 5]: -8.2% | Percent Viability @ 1 μM (TZM-bl cells) [2]: 96.0% | Kd [3]: 576 nM
